Literature values, collected in patent US20180256623A1, “COMPOSITIONS AND METHOD FOR REGULATING ADIPOSE TISSUE LIPOLYSIS, INSULIN-RESISTANCE, AND HYPERGLYCEMIA” (University of Virginia Patent Foundation, priority 2015, published 2018).

biological target: T1, HSL (Homo sapiens, UniProt Q05469); conditions: Table 1, 4-substituted 5-(2H)-isoxazolones; means of three experiments; cited from earlier work
T1 sequence (Q05469 1-1076): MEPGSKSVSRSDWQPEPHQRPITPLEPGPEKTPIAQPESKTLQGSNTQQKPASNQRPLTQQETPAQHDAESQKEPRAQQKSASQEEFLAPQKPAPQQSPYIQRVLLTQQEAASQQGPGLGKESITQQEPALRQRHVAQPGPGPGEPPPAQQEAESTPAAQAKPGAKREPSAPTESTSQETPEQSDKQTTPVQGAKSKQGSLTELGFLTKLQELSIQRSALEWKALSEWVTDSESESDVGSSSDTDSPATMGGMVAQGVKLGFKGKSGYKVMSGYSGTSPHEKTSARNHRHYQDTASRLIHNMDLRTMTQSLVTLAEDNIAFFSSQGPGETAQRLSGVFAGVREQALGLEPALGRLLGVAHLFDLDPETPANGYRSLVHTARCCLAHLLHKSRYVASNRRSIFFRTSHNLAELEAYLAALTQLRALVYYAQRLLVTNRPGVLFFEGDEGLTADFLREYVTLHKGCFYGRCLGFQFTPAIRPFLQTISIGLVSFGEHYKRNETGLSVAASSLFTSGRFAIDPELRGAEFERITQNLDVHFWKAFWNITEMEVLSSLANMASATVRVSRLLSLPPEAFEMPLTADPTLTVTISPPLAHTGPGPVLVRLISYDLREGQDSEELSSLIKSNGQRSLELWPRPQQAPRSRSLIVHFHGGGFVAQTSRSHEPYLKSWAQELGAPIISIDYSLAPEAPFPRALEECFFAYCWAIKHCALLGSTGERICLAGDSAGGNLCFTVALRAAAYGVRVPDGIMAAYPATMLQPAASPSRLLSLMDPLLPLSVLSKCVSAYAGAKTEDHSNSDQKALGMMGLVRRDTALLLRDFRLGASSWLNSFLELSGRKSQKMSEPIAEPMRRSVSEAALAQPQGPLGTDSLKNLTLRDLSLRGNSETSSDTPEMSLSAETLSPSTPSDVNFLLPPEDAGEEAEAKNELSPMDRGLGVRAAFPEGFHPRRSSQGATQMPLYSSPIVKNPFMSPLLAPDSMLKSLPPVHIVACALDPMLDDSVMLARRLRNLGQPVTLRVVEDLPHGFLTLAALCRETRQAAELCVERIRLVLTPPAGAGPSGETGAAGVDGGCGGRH

Row | SMILES | IC50 [nM]
1 | Cc1c(C2CCSCC2)c(=O)on1C(=O)N1CCCCC1 [Compound 15] | 55
2 | Cc1c(-c2ccccc2)c(=O)on1C(=O)N1CCCCC1 [Compound 19] | 17

same assay, conditions: Table 2, acyclic ureas; means of three experiments; Na = not active; cited from earlier work

Row | SMILES | IC50 [nM]
3 | Cc1c(C(C)C)c(=O)on1C(=O)NC(C)(C)C [Compound 20] | > 1000
4 | Cc1c(C(C)C)c(=O)on1C(=O)Nc1ccccc1 [Compound 21] | > 1000

same assay, conditions: Table 3, cyclic amine-derived ureas; means of three experiments; Na = not active; cited from earlier work

Row | SMILES | IC50 [nM]
5 | Cc1c(C(C)C)c(=O)on1C(=O)N1CCc2ccccc21 [Compound 44] | > 1000
6 | Cc1c(C(C)C)c(=O)on1C(=O)N1CCNCC1 [Compound 46] | > 1000

same assay, conditions: piperidine derivatives; means of three experiments; Na = not active; cited from earlier work

Row | SMILES | IC50 [nM]
7 | Cc1c(C(C)C)c(=O)on1C(=O)N1CCC(C(=O)N(C)C)CC1 [Compound 84] | > 1000
8 | Cc1nnc(C2CCN(C(=O)n3oc(=O)c(C(C)C)c3C)CC2)o1 [Compound 86] | > 1000
9 | Cc1c(C(C)C)c(=O)on1C(=O)N1CCC(C#N)(c2ccccc2)CC1 [Compound 91] | > 1000
10 | Cc1c(C(C)C)c(=O)on1C(=O)N1CCC(O)(c2ccccc2)CC1 [Compound 92] | > 1000

test system: 3T3-L1; conditions: Table 1, 4-substituted 5-(2H)-isoxazolones; means of three experiments; cited from earlier work

Row | SMILES | IC50 [nM]
11 | Cc1c(Sc2ccc(Cl)cc2)c(=O)on1C(=O)N1CCCCC1 [Compound 1] | 135
12 | Cc1c(Sc2ccccc2)c(=O)on1C(=O)N1CCCCC1 [Compound 3] | 190
13 | Cc1c(Cc2ccccc2)c(=O)on1C(=O)N1CCCCC1 [Compound 4] | 90
14 | Cc1c(C)n(C(=O)N2CCCCC2)oc1=O [Compound 5] | 655
15 | CCc1c(C)n(C(=O)N2CCCCC2)oc1=O [Compound 6] | 325
16 | Cc1c(C(C)C)c(=O)on1C(=O)N1CCCCC1 [Compound 8] | 75
17 | Cc1c(CC(C)C)c(=O)on1C(=O)N1CCCCC1 [Compound 9] | 32
18 | Cc1c(C(C)(C)C)c(=O)on1C(=O)N1CCCCC1 [Compound 10] | 90
19 | Cc1c(C2CCCC2)c(=O)on1C(=O)N1CCCCC1 [Compound 11] | 22
20 | Cc1c(C2CCCCC2)c(=O)on1C(=O)N1CCCCC1 [Compound 12] | 27
21 | Cc1c(C2CCOCC2)c(=O)on1C(=O)N1CCCCC1 [Compound 13] | 200
22 | Cc1c(C2CCSCC2)c(=O)on1C(=O)N1CCCCC1 [Compound 14] | 98
23 | Cc1c(C2CCSCC2)c(=O)on1C(=O)N1CCCCC1 [Compound 15] | 380
24 | COCCc1c(C)n(C(=O)N2CCCCC2)oc1=O [Compound 16] | 180
25 | Cc1c(CCOc2ccccc2)c(=O)on1C(=O)N1CCCCC1 [Compound 17] | 2
26 | Cc1c(-c2ccccc2)c(=O)on1C(=O)N1CCCCC1 [Compound 19] | 150

same assay, conditions: Table 2, acyclic ureas; means of three experiments; Na = not active; cited from earlier work

Row | SMILES | IC50 [nM]
27 | Cc1c(C(C)C)c(=O)on1C(=O)N(C)C1CCCCC1 [Compound 24] | > 1000
28 | Cc1c(C(C)C)c(=O)on1C(=O)N(C)Cc1ccccc1 [Compound 25] | 67
29 | Cc1c(C(C)C)c(=O)on1C(=O)N(C)Cc1ccccc1F [Compound 26] | 10
30 | Cc1c(C(C)C)c(=O)on1C(=O)N(C)Cc1ccc(F)cc1 [Compound 28] | 1000
31 | Cc1c(C(C)C)c(=O)on1C(=O)N(C)Cc1ccco1 [Compound 30] | 9
32 | Cc1c(C(C)C)c(=O)on1C(=O)N(C)CCc1ccccc1 [Compound 33] | 300
33 | Cc1c(C(C)C)c(=O)on1C(=O)N(C)c1ccc(Cl)cc1 [Compound 37] | > 1000
34 | CCN(CC)C(=O)n1oc(=O)c(C(C)C)c1C [Compound 39] | 600

same assay, conditions: Table 3, cyclic amine-derived ureas; means of three experiments; Na = not active; cited from earlier work

Row | SMILES | IC50 [nM]
35 | Cc1c(C(C)C)c(=O)on1C(=O)N1CCCCC1 [Compound 8] | 75
36 | Cc1c(C(C)C)c(=O)on1C(=O)N1CCCC1 [Compound 41] | 28
37 | Cc1c(C(C)C)c(=O)on1C(=O)N1CC=CC1 [Compound 43] | 120
38 | Cc1c(C(C)C)c(=O)on1C(=O)N1CCN(C)CC1 [Compound 47] | > 1000
39 | Cc1c(C(C)C)c(=O)on1C(=O)N1CCN(Cc2ccccc2)CC1 [Compound 48] | 56
40 | Cc1c(C(C)C)c(=O)on1C(=O)N1CCN(c2ccccc2)CC1 [Compound 49] | 27
41 | Cc1c(C(C)C)c(=O)on1C(=O)N1CCOCC1 [Compound 53] | > 1000
42 | Cc1c(C(C)C)c(=O)on1C(=O)N1CCSCC1 [Compound 54] | 290
43 | Cc1c(C(C)C)c(=O)on1C(=O)N1CCCCCC1 [Compound 55] | 215

same assay, conditions: piperidine derivatives; means of three experiments; Na = not active; cited from earlier work

Row | SMILES | IC50 [nM]
44 | Cc1c(C(C)C)c(=O)on1C(=O)N1CCCCC1 [Compound 8] | 75
45 | Cc1c(C(C)C)c(=O)on1C(=O)N1CCCCC1C (centres unmarked) [Compound 57] | 400
46 | Cc1c(C(C)C)c(=O)on1C(=O)N1CCC[C@@H](C)C1 [Compound 58] | 187
47 | Cc1c(C(C)C)c(=O)on1C(=O)N1CCC[C@H](C)C1 [Compound 59] | 28
48 | Cc1c(C(C)C)c(=O)on1C(=O)N1CCCC(CO)C1 (centres unmarked) [Compound 60] | 800
49 | CCOC(=O)C1CCCN(C(=O)n2oc(=O)c(C(C)C)c2C)C1 (centres unmarked) [Compound 62] | 170
50 | Cc1c(C(C)C)c(=O)on1C(=O)N1CCC(C)CC1 [Compound 63] | 40
51 | CCCCc1c(C)n(C(=O)N2CCC(C)CC2)oc1=O [Compound 64] | 10
52 | Cc1c(C2CCCCC2)c(=O)on1C(=O)N1CCC(C)CC1 [Compound 66] | 20
53 | CCOCCc1c(C)n(C(=O)N2CCC(C)CC2)oc1=O [Compound 67] | 20
54 | Cc1c(C2CCSCC2)c(=O)on1C(=O)N1CCC(C)CC1 [Compound 68] | 24
55 | Cc1c(C(C)C)c(=O)on1C(=O)N1CCC(c2ccccc2)CC1 [Compound 70] | 33
56 | Cc1c(C2CCCC2)c(=O)on1C(=O)N1CCC(c2ccccc2)CC1 [Compound 72] | 8
57 | COCCc1c(C)n(C(=O)N2CCC(c3ccccc3)CC2)oc1=O [Compound 73] | 5
58 | Cc1c(C(C)C)c(=O)on1C(=O)N1CCC(c2cccc(F)c2)CC1 [Compound 74] | 4
59 | COCCc1c(C)n(C(=O)N2CCC(c3cccc(F)c3)CC2)oc1=O [Compound 75] | 0.2
60 | COCCc1c(C)n(C(=O)N2CCC(c3cccc(C)c3)CC2)oc1=O [Compound 76] | 4
61 | Cc1ccc(C2CCN(C(=O)n3oc(=O)c(C(C)C)c3C)CC2)cc1 [Compound 77] | 246
62 | Cc1c(C(C)C)c(=O)on1C(=O)N1CCC(=O)CC1 [Compound 83] | 150
63 | Cc1c(C(C)C)c(=O)on1C(=O)N1CC(C)CCC1C (centres unmarked) [Compound 88] | > 1000
64 | Cc1c(C(C)C)c(=O)on1C(=O)N1CC(C)CC(C)C1 (centres unmarked) [Compound 90] | 140
65 | Cc1c(C(C)C)c(=O)on1C(=O)N1CCC(O)(c2ccccc2)CC1 [Compound 92] | > 1000
